Measured values from patent US8530619B2, “Identification of the hepcidin binding site on ferroportin” (University of Utah Research Foundation, priority 2007, dated 2013).
No end group written: not given here.

Experiments:
E. coli = test: Binding of hepcidin to E. coli; settings: low temperature hepcidin dimer; preliminary study
Method: The five amino terminal amino acids of hepcidin were previously shown to be critical for binding of hepcidin to Fpn (7). […] Hepcidin is amphipathic and it is hypothesized that the hydrophobic surface of hepcidin monomers are interacting at 4° C. to form a dimer. Hepcidin, like other defensins, interacts through its hydrophobic surface with bacterial membranes (11).

[1] = target: T1, I-HBD (hepcidin binding domain of ferroportin) (Homo sapiens, UniProt Q9NP59); test: Competition with 125I-hepcidin for binding to I-HBD beads
T1 construct: made in house; host or cells: chemical synthesis
Method: FIGS. 2A-C illustrates that the binding of ^125I-hepcidin to HBD is specific and temperature dependent. In FIG. 2A peptides (HBD, scrambled-HBD or mutant (C326Y HBD) were conjugated to beads and ^125I-hepcidin was added to the bead-immobilized peptides (I-HBD) for 18 hours at 37° C. (black bars) or 4° C. (grey bars). The beads were washed and the amount of ^125I-hepcidin bound to the I-HBD was determined. In FIG. 2B a sub saturating concentration of ^125I-hepcidin (0.6 μg/ml) was incubated with I-HBD for 18 hours at 37° C. in the presence or absence of known concentrations of either hepcidin 25 (Hep 25-open circles) or hepcidin 25 synthesized with a tyrosine substitution at position M21 (Y-Hep 25) and the amount of radioactivity bound to the I-HBD determined. In FIG. 2C sub saturating levels of ^125I-hepcidin were incubated with I-HBD at different temperatures.
The binding of ^125I-hepcidin could be reduced by addition of native non-radioactive hepcidin with an apparent K of approximately 200 nM (FIG. 2B). There was no binding of ^125I-hepcidin to I-HBD at 4° C. and ^125I-hepcidin bound to I-HBD at 37° C. was released when subsequently placed at 4° C. (data not shown).
HBD peptides were immobilized by covalently attaching them to agarose beads. […] The fluid was removed and the radioactivity bound to beads was determined by gamma counting (Perkin/Elmer).

I-HBD = target: T2, I-HBD (Homo sapiens, UniProt Q9NP59); test: Competition with 125I-labeled hepcidin on HBD-coated 96-well plate; format: binding; settings: 96-well plate, 0, 50, 100, 500 ng hepcidin, room temperature, 4 hours
T2 construct: made in house; host or cells: chemical synthesis
Method: In accordance with the invention, HBD can be used in an assay system to determine levels of hepcidin in a test sample. Accordingly, unlabeled HBD is immobilized on a solid substrate. HBD peptides were immobilized by covalently attaching them to a 96-well plate. Immobilization was performed using Reacti-Bind Amine-binding 96-well plates (Pierce), following the manufacturer's instructions. […] The plates were incubated at room temperature overnight. The peptide solution was then removed from the wells and a protein blocking buffer, such as dry milk in phosphate buffer saline, was added to each well and allowed to sit for two hours at 37° C. The plates were then washed with warm washing buffer to remove unbound material. HBD-coated plates were used in an assay to detect hepcidin as follows: […] The plate was incubated at room temperature for 4 hours. […] (FIG. 7)

[2] = Solubility of the peptide; format: physicochemical; settings: two arginines added at amino and carboxyl terminals
Method: Peptides were synthesized at the DNA/Peptide Core Facility, University of Utah, Salt Lake City, Utah. The peptides were synthesized with two arginines added at the amino and carboxyl terminals. […] Microscope analysis was carried out using an Olympus BX51 microscope (Olympus, Tokyo, Japan). Images were acquired using Picture Frame 2.5 software (Olympus America, East Muskogee, Okla.). All experiments were repeated a minimum of 5 times.

Row | solubility of the peptide [2] | Molecule | binding to E. coli (E. coli) | binding to HBD / I-HBD [1] | competition with 125I-labeled hepcidin for binding to I-HBD (I-HBD)
1 |  | CC[C@H](C)[C@@H]1NC(=O)[C@@H](NC(=O)[C@@H](NC(=O)[C@@H]2CCCN2C(=O)[C@H](Cc2ccccc2)NC(=O)[C@H](Cc2c[nH]cn2)NC(=O)[C@@H](NC(=O)[C@@H](N)CC(=O)O)[C@@H](C)O)[C@@H](C)CC)CSSC[C@@H](C(=O)N[C@@H](CCCCN)C(=O)N[C@H](C(=O)O)[C@@H](C)O)NC(=O)[C@@H]2CSSC[C@@H]3NC(=O)[C@@H]4CSSC[C@H](NC(=O)[C@H](Cc5ccccc5)NC1=O)C(=O)N[C@@H](CSSC[C@H](NC(=O)[C@H](CCCCN)NC(=O)[C@H](CO)NC(=O)[C@H](CCCNC(=N)N)NC(=O)[C@H](Cc1c[nH]cn1)NC3=O)C(=O)NCC(=O)N[C@@H](CCSC)C(=O)N2)C(=O)NCC(=O)N4 [hepcidin] | cannot bind to E. coli | does bind | able to compete for binding to I-HBD
2 | increased the solubility | RRFDCITTGYAYTQGLSGSILSRR [HBD wt] |  |  | 
